pIC50: −log10 of the molar value.
What was measured:
Format in all cases: biochemical
PDK1 = molecular target: T1, PDK1 (Homo sapiens, UniProt O15530); experiment: PDK1 kinase assay (33P peptide phosphorylation); conditions: 0.01 mM ATP, 60 min at 30° C.; read-out: PDK-1 IC50
T1 sequence (O15530 1-556): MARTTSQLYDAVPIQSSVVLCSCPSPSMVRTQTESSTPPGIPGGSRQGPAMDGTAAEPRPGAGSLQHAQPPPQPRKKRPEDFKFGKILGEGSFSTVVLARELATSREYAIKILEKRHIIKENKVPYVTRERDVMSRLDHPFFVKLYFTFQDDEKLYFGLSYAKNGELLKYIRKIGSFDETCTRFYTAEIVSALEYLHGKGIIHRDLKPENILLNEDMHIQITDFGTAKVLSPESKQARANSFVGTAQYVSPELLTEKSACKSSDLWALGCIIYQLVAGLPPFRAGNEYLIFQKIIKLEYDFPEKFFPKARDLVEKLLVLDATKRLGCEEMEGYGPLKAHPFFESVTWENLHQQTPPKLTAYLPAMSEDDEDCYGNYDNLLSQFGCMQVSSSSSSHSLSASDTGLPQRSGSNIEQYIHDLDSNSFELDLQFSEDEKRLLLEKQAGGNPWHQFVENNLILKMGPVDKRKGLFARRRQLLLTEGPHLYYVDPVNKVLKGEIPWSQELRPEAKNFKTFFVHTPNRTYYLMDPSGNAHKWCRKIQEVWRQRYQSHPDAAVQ
Method: (§1) The assay mixture containing the inhibitor and PDK1 enzyme was mixed together in a microtiter plate in a final volume of 50 μl and incubated for 60 min at 30° C. The assay mixture contained 0.01 mM unlabeled ATP, 0.01 μCi/μl ^33P-γ-ATP, 0.075 mM peptide, 0.1 mg/ml BSA, 7.5 mM magnesium acetate, 0.05M Tris.HCl, pH 7.5, 0.5% 2-mercaptoethanol. The reaction was stopped by adding 50 μl of 50 mM phosphoric acid. 90 μl of the mixture were transferred to a pre-wetted 96-well Multiscreen MAPHNOB filtration plate (Millipore) and filtered on a vacuum manifold. The filter plate was washed with 3 successive additions of 200 μl 50 mM phosphoric acid and then with 100 μl methanol. The filtration plate was dried for 10 min at 65° C., scintillant added and phosphorylated peptide quantified in a scintillation counter (Trilux, PerkinElmer)

GST-Chk1 enzyme = molecular target: T2, GST-Chk1 enzyme (Homo sapiens, UniProt O14757); experiment: Chk1 kinase assay (33P Chktide phosphorylation); conditions: 0.01 mM ATP, 40 minutes at 30° C.; read-out: CHK-1 IC50
T2 sequence (O14757 1-476): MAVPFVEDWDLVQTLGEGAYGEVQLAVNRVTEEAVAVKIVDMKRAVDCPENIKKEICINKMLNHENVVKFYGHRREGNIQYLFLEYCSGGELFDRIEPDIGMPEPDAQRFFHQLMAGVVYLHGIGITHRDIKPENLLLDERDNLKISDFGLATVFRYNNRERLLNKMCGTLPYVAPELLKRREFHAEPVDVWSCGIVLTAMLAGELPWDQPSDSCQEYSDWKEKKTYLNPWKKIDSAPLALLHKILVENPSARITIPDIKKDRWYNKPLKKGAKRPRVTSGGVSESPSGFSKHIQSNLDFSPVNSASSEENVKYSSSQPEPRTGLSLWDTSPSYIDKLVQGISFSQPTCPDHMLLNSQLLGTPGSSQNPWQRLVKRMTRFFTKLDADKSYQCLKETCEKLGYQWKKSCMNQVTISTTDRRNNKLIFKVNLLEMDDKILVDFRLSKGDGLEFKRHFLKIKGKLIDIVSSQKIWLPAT
Method: as §1, with “Chk1” for “PDK1”, “40 minutes” for “60 min”, “The assay mixture contained 0.01 mM unlabeled ATP, 0.01 μCi/μl ^33P-γ-ATP, 0.075 mM peptide, 0.1 mg/ml BSA, 7.5 mM magnesium acetate, 0.05M Tris.HCl, pH 7.5, 0.5% 2-mercaptoethanol.” left out, “was” for “were”, “multi-screen” for “Multiscreen”

Akt1 = molecular target: T3, Akt1 (Homo sapiens, UniProt P31749); experiment: Akt1 kinase assay (Histone H1 substrate); conditions: 200 μM ATP, read-out: AKT-1 IC50
T3 construct: purchased Upstate
Method: (§2) Assays for the cyclin dependent kinase activity were carried out by monitoring the phosphorylation of a synthetic peptide, HATTPKKKRK. The assay mixture containing the inhibitor and CDK-2 enzyme, complexed with cyclin A (0.4 U/ml) was mixed together in a microtiter plate in a final volume of 50 μl and incubated for 40 min at 30° C. The assay mixture contained 0.1 mM unlabeled ATP, 0.01 μCi/μl ^33P-γ-ATP, 0.03 mM peptide, 0.1 mg/ml BSA, 7.5 mM magnesium acetate, 50 mM HEPES-NaOH, pH 7.5. The reaction was stopped by adding 50 μl of 50 mM phosphoric acid. 90 μl of the mixture were transferred to a pre-wetted 96-well Multiscreen MAPHNOB filtration plate (Millipore) and filtered on a vacuum manifold. The filter plate was washed with 3 successive additions of 200 μl 50 mM phosphoric acid and then with 100 μl methanol. The filtration plate was dried for 10 min at 65° C., scintillant added and phosphorylated peptide quantified in a scintillation counter (Trilux, PerkinElmer)
Protocol for the Akt assay is the same for CDK2 except that, 3 nM Akt1 (Upstate) was used with Histone H1 as substrate with a final ATP concentration of 200 μM. The reaction was incubated at 30° C. for 40 minutes.

PKA = molecular target: T4, PKA (Homo sapiens, UniProt P17612); experiment: PKA kinase assay (Kemptide substrate); conditions: 100 μM ATP
T4 construct: purchased Upstate
Method: as §2, with “The” for “Assays for the cyclin dependent kinase activity were carried out by monitoring the phosphorylation of a synthetic peptide, HATTPKKKRK. The”
The PKA assay was incubated at 30° C. for 30 minutes.

[1] = molecular target: CDK-2 enzyme, complexed with cyclin A (Homo sapiens, UniProt P24941); experiment: CDK2 kinase assay (33P peptide phosphorylation); conditions: 0.1 mM ATP, cyclin A complex
Method: as §2, with “The” for “Assays for the cyclin dependent kinase activity were carried out by monitoring the phosphorylation of a synthetic peptide, HATTPKKKRK. The”

T3 sequence (P31749 whole entry, species assumed): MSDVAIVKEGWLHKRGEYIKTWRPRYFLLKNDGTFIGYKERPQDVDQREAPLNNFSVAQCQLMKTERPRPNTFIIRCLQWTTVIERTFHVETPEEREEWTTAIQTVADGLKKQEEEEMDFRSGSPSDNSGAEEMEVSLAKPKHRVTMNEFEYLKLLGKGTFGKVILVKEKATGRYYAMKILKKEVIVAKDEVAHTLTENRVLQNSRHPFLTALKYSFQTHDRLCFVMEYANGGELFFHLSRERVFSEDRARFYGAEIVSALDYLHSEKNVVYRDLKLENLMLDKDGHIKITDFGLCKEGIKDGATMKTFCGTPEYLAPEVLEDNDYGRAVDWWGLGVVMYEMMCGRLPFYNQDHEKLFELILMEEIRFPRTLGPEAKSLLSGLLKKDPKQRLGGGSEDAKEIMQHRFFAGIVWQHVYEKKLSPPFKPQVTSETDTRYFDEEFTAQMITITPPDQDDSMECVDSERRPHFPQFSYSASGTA

## CCOC(=O)c1ccc2nc(-c3n[nH]c(C)c3C(=O)NC3CCNCC3)[nH]c2c1 [Example 6, 2-[5-Methyl-4-(piperidin-4-ylcarbamoyl)-1H-pyrazol-3-yl]-3H-benzimidazole-5-carboxylic Acid Ethyl Ester]
PDK1
  pIC50: 6.36
GST-Chk1 enzyme
  pIC50: 7.64
Akt1
  pIC50: < 4.30
PKA
  pIC50: 4.40
[1]
  pIC50: 4.40

## Cc1[nH]nc(-c2nc3cc(-c4cccc5c4CCO5)ccc3[nH]2)c1C(=O)NC1CCNCC1 [Example 23]
PDK1
  pIC50: 6.90
GST-Chk1 enzyme
  pIC50: 7.82
Akt1
  pIC50: 4.59
PKA
  pIC50: 5.27
[1]
  pIC50: 4.68

## Cc1[nH]nc(-c2nc3cc(F)c(NC(=O)C4CC4)cc3[nH]2)c1C(=O)NC1CCN(C)CC1 [Example 34]
PDK1
  pIC50: 6.67
GST-Chk1 enzyme
  pIC50: 7.89
Akt1
  pIC50: 4.36
PKA
  pIC50: 4.55
[1]
  pIC50: 4.69

## Cc1[nH]nc(-c2nc3ccccc3[nH]2)c1C(=O)NCCN [Example 50]
PDK1
  pIC50: > 6.30
GST-Chk1 enzyme
  pIC50: > 6.30

## Cc1[nH]nc(-c2nc3ccc(C4CC4)cc3[nH]2)c1C(=O)NC1CN2CCC1CC2 (centres unmarked) [Example 47]
PDK1
  pIC50: 6.97
GST-Chk1 enzyme
  pIC50: 7.07
Akt1
  pIC50: < 5.00
PKA
  pIC50: 5.42
[1]
  pIC50: < 4.30

## Cc1[nH]nc(-c2nc3cc(Cl)ccc3[nH]2)c1C(=O)NC1CCNCC1 [Example 17]
PDK1
  pIC50: 6.72
GST-Chk1 enzyme
  pIC50: 6.65
Akt1
  pIC50: < 4.30
PKA
  pIC50: 5.04
[1]
  pIC50: 4.97

## Cc1[nH]nc(-c2nc3ccc(C4CC4)cc3[nH]2)c1C(=O)NC1CCNCC1 [Example 40]
PDK1
  pIC50: 7.70
GST-Chk1 enzyme
  pIC50: 7.66
Akt1
  pIC50: < 5.00
PKA
  pIC50: 5.54
[1]
  pIC50: 4.63

## Cc1[nH]nc(-c2nc3ccc(C(=O)NCC(O)c4ccccc4)cc3[nH]2)c1C(=O)NC1CCNCC1 (centres unmarked) [Example 35]
PDK1
  pIC50: 7.24
GST-Chk1 enzyme
  pIC50: 7.43
Akt1
  pIC50: 4.97
PKA
  pIC50: 5.27
[1]
  pIC50: 4.86

## Cc1[nH]nc(-c2nc3cc(Cl)c(C(C)C)cc3[nH]2)c1C(=O)NC1CCNCC1 [Example 45]
PDK1
  pIC50: 7.89
GST-Chk1 enzyme
  pIC50: 7.89
Akt1
  pIC50: < 5.00
PKA
  pIC50: 5.29
[1]
  pIC50: 4.92

## Cc1[nH]nc(-c2nc3ccccc3[nH]2)c1C(=O)NC1CCN(Cc2ccccc2)CC1 [Example 10]
PDK1
  pIC50: 6.36
GST-Chk1 enzyme
  pIC50: 6.97
Akt1
  pIC50: < 4.30
PKA
  pIC50: 4.54
[1]
  pIC50: 4.36

## Cc1[nH]nc(-c2nc3cc4ccccc4cc3[nH]2)c1C(=O)NCC1CCCN1 (centres unmarked) [Example 26]
PDK1
  pIC50: 6.28
GST-Chk1 enzyme
  pIC50: 6.51
Akt1
  pIC50: < 4.30
PKA
  pIC50: 4.46
[1]
  pIC50: 4.47

## Cc1[nH]nc(-c2nc3ccccc3[nH]2)c1C(=O)NC1CCCNC1 (centres unmarked) [Example 19]
PDK1
  pIC50: 7.30
GST-Chk1 enzyme
  pIC50: 7.24
Akt1
  pIC50: < 4.30
PKA
  pIC50: 4.96
[1]
  pIC50: 5.35

## Cc1cc2nc(-c3n[nH]c(C)c3C(=O)NC3CCN(C)CC3)[nH]c2cc1C [Example 29]
PDK1
  pIC50: 6.74
GST-Chk1 enzyme
  pIC50: 7.80
Akt1
  pIC50: < 4.30
PKA
  pIC50: 5.22
[1]
  pIC50: 5.08

## Cc1[nH]nc(-c2nc3ccc(C(C)C)cc3[nH]2)c1C(=O)NC1CN2CCC1CC2 (centres unmarked) [Example 42]
PDK1
  pIC50: 7.35
GST-Chk1 enzyme
  pIC50: 7.30
Akt1
  pIC50: < 5.00
PKA
  pIC50: 5.42
[1]
  pIC50: 5.01

## Cc1[nH]nc(-c2nc3cc4ccccc4cc3[nH]2)c1C(=O)NC1CCNCC1 [Example 5, 5-Methyl-3-(1H-naphtho[2,3-d]imidazol-2-yl)-1H-pyrazole-4-carboxylic Acid piperidine-4-ylamide]
PDK1
  pIC50: 7.24
GST-Chk1 enzyme
  pIC50: 8.00
Akt1
  pIC50: < 4.30
PKA
  pIC50: 5.49
[1]
  pIC50: 5.34

## Cc1[nH]nc(-c2nc3cc(Cl)c(C(C)C)cc3[nH]2)c1C(=O)NC1CN2CCC1CC2 (centres unmarked) [Example 44]
PDK1
  pIC50: 6.85
GST-Chk1 enzyme
  pIC50: 7.04
Akt1
  pIC50: < 5.00
PKA
  pIC50: 4.92
[1]
  pIC50: < 4.30

## Cc1[nH]nc(-c2nc3cc(F)c(F)cc3[nH]2)c1C(=O)NC1CCNCC1 [Example 13]
PDK1
  pIC50: 6.28
GST-Chk1 enzyme
  pIC50: 6.29
Akt1
  pIC50: < 4.30
PKA
  pIC50: 4.71
[1]
  pIC50: 5.10

## Cc1[nH]nc(-c2nc3c(F)c(F)ccc3[nH]2)c1C(=O)NC1CCNCC1 [Example 12]
PDK1
  pIC50: 6.31
GST-Chk1 enzyme
  pIC50: 6.22
Akt1
  pIC50: < 4.30
PKA
  pIC50: 4.68
[1]
  pIC50: 4.98

## Cc1[nH]nc(-c2nc3cc4cn[nH]c4cc3[nH]2)c1C(=O)NCC1CCNCC1 [Example 22]
PDK1
  pIC50: 6.96
GST-Chk1 enzyme
  pIC50: 7.03
Akt1
  pIC50: 4.44
PKA
  pIC50: 5.19
[1]
  pIC50: 4.51

## COCCNC(=O)c1ccc2nc(-c3n[nH]c(C)c3C(=O)NC3CCNCC3)[nH]c2c1 [Example 31]
PDK1
  pIC50: 7.14
GST-Chk1 enzyme
  pIC50: 8.70
Akt1
  pIC50: 4.50
PKA
  pIC50: 5.09
[1]
  pIC50: 4.94

## Cc1[nH]nc(-c2nc3ccc(NC(=O)CC(C)C)cc3[nH]2)c1C(=O)NC1CCN(C)CC1 [Example 33]
PDK1
  pIC50: 7.02
GST-Chk1 enzyme
  pIC50: 8.52
Akt1
  pIC50: 4.32
PKA
  pIC50: 4.88
[1]
  pIC50: 4.67

## Cc1[nH]nc(-c2nc3ccc(C(C)(C)C)cc3[nH]2)c1C(=O)NC1CCNCC1 [Example 37]
PDK1
  pIC50: 7.31
GST-Chk1 enzyme
  pIC50: 8.22
Akt1
  pIC50: < 5.00
PKA
  pIC50: 5.31
[1]
  pIC50: 5.73

## Cc1[nH]nc(-c2nc3ccc(C(C)C)cc3[nH]2)c1C(=O)NC1CC2CCC(C1)N2C (centres unmarked) [Example 49]
PDK1
  pIC50: > 6.30
GST-Chk1 enzyme
  pIC50: > 6.30

## Cc1[nH]nc(-c2nc3ccc(C(=O)NC4CCc5ccccc54)cc3[nH]2)c1C(=O)NC1CCNCC1 (centres unmarked) [Example 48]
PDK1
  pIC50: > 7.30

Reference: patent US20090131470A1, “PYRAZOLE-SUBSTITUTED BENZIMIDAZOLE DERIVATIVES FOR USE IN THE TREATMENT OF CANCER AND AUTOIMMUNE DISORDERS” (priority 2005, published 2009)
